Where two headings read alike, the source gives them in different places.
Columns and labels:
[1] = target: T1, human AR (Homo sapiens, UniProt P10275); parameters: method as in Otsuki et al. [38]; key: +, positive; conditions: previous study; ref Otsuki et al. [38]; cited from earlier work
T1 sequence (P10275 1-920): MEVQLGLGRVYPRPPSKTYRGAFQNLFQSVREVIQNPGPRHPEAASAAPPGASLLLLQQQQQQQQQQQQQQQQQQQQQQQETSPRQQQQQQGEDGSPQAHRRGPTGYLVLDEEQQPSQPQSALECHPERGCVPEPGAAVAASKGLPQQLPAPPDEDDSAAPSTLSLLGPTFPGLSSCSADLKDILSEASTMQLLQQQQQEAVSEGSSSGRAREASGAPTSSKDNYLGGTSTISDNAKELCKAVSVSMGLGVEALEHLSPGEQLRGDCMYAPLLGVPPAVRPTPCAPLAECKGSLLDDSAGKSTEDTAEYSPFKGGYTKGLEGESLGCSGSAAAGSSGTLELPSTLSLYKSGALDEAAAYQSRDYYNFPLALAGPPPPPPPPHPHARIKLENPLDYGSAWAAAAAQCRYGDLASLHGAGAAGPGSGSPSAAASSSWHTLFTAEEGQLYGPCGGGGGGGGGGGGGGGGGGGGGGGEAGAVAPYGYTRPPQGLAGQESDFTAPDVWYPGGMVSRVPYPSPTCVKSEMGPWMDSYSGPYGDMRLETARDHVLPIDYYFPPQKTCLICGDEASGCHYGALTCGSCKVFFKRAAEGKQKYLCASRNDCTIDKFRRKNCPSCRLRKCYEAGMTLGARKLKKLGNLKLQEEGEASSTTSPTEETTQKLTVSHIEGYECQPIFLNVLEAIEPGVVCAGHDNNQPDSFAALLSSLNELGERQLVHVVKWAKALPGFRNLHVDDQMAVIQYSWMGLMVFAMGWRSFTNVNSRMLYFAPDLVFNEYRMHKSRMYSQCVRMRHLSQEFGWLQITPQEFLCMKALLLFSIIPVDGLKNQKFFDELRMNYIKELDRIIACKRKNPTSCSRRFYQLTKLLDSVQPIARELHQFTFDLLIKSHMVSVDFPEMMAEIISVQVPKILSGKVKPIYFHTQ

[2] = target: T1, human AR; test: AR-CALUX assay, antiandrogenic (AR antagonistic) activity, U2OS-luc cells; type: cell-based; parameters: host or cells: human U2OS-luc (osteoblastic osteosarcoma) cells; conditions: for IC25 / REPmol (IC25): present study; for IC25: 24 h exposure with 100 pM DHT (EC50 level); for REPmol (IC25): molar relative potency to flutamide, IC25-based; for IC50: read-out: IC50; for inhibition of AR-mediated luciferase activity: coexposure to DHT at 10 nM (100 × EC50); for mode of AR inhibition: from coexposure to 10 nM DHT
Protocol: (§1) The AR- and ER-CALUX assays for the polycyclic aromatic compounds were evaluated according to previously described methods, which used human U2OS-luc cells developed by BioDetection Systems b.v. (Amsterdam, The Netherlands). The cells are transfected stably with human AR and ER, respectively, and a luciferase reporter gene under their respective steroid receptor response elements. […] They were incubated at 37 °C in a humidified atmosphere containing 5% carbon dioxide. […] The medium was then removed, and the cells were lysed. A solution of luciferin was then added, and the luminescence intensity was measured with an ARVO™ X3 luminometer from PerkinElmer (Waltham, MA, USA). A sigmoid dose–response curve for a chemical was fitted to the Hill equation given by Equation (1) using SigmaPlot 11.0 from Systat Software Inc. (San Jose, CA, USA). y = min + (max − min)/(1 + (a1/x)^a^2)(1) where, y and x are the measured luciferase induction level and compound concentration, respectively. […] The REP values in mol base were obtained by dividing the ICs or ECs of the standard by the ICs or ECs of target compound, respectively.
(§2) All measurements were conducted in triplicate wells. They were repeated twice and trice in the AR- and ER-CALUX assays, respectively, for each concentration in dose–response curve. […] Cell viability was confirmed using 3-(4,5-dimethylthiazol-2-yl)-2,5-diphenyltetrazolium bromide (MTT) assay. If the cell viability was <80% in the positive control, the corresponding exposure dose was considered cytotoxic and excluded from the calculation.

[3] = target: T2, human ER (Homo sapiens, UniProt P03372); test: ER-CALUX assay, estrogenic activity, U2OS-luc cells; type: cell-based; parameters: host or cells: human U2OS-luc (osteoblastic osteosarcoma) cells; conditions: for EC50 / REPmol (EC50): present study; for EC50: 24 h exposure; for REPmol (EC50): molar relative potency to E2, EC50-based
T2 sequence (P03372 1-595): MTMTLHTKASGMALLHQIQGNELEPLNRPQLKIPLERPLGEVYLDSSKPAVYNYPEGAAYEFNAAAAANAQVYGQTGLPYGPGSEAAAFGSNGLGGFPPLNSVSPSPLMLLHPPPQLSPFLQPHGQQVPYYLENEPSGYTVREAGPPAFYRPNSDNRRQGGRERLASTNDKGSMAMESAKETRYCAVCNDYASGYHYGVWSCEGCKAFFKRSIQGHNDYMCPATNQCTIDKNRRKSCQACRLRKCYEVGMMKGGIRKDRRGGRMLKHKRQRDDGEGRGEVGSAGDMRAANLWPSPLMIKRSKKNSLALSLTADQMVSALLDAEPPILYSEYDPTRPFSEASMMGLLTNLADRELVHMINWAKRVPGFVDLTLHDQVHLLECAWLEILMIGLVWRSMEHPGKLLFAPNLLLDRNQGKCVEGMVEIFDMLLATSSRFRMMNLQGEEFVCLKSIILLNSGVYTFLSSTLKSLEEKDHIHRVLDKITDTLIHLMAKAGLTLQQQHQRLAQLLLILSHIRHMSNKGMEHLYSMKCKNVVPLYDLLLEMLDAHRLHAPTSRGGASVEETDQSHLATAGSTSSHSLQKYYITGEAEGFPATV

[4] = target: T2, human ER; parameters: method as in Machala et al. [36]; conditions: previous study; relative to E2; ref Machala et al. [36]; cited from earlier work
[5] = test system: U2OS-luc cells; test: MTT cell viability (cytotoxicity) assay; conditions: cell viability <80% considered cytotoxic
Protocol: as §2

[6] = test system: AR; conditions: previous study, relative to flutamide, cited from earlier work
[7] = test system: AR; parameters: method as in Okamura et al. [22]; key: +, positive; conditions: previous study; ref Okamura et al. [22]; cited from earlier work
[8] = test system: ER; parameters: method as in Pieterse et al. [30]; conditions: previous study; relative to E2; ref Pieterse et al. [30]; cited from earlier work
[9] = test system: ER; conditions: previous study; relative to E2; ref Šimečková et al. [44]; cited from earlier work
[10] = test system: ER; parameters: method as in Boonen et al. [33]; conditions: previous study; relative to E2; ref Boonen et al. [33]; cited from earlier work
[11] = test system: thyroid receptor (TR) α; parameters: method as in PMID 31071665; conditions: TRα activation; cited from earlier work
[12] = target: T1, human AR; test: AR-CALUX assay, androgenic (agonistic) activity; type: cell-based; parameters: host or cells: human U2OS-luc (osteoblastic osteosarcoma) cells; conditions: data not shown
Protocol: as §1

## O=[N+]([O-])c1ccc2ccc3c([N+](=O)[O-])ccc4ccc1c2c43 [1,6-DNPy, 1,6-dinitropyrene]
[1]
  antiandrogenic activity, Yeast: +
[2]; at 0.1 μM (100 nM), maximum soluble concentration, read-out: inhibition of AR activation
  inhibition at 0.1 µM: > 20%
[3]
  EC50: U (key: U: < 10% response of 1 nM E2; nd: not detected)
  REPmol (EC50): U (key: U: < 10% response of 1 nM E2; nd: not detected)

## O=C1c2ccccc2C(=O)c2c1ccc1ccccc21 [BAQ, 7,12-benz[a]anthracenequinone]
[4]
  REPmol, MVLN: 1.4 × 10^−6
[2]
  IC25: 2500 nM
  REPmol (IC25): 0.056
  IC50: 6400 nM

## O=C1C(=O)c2ccccc2-c2ccccc21 [PhQ, phenanthrenequinone]
[5]
  concentration at which cytotoxicity was confirmed: 1000 nM
[2]
  IC25: 180 nM
  REPmol (IC25): 0.63
  IC50: 390 nM

## c1ccc2cc3c(ccc4ccccc43)cc2c1 [B[a]A, benz[a]anthracene]
[6]; ref Alvarez-Muñoz et al. [28]
  REPmol, U2OS: 1.3
[6]; ref Marin-Kuan et al. [29]
  REPmol, U2OS: 0.4
[7]
  antiandrogenic activity, PC3: +
[8]
  REPmol, U2OS: <2 × 10^−9
[4]
  REPmol, MVLN: 7.9 × 10^−7
[9]
  REPmol, T47D: 1.6 × 10^−6

## c1cc2ccc3cccc4ccc(c1)c2c34 [Py, pyrene]
[6]; ref Alvarez-Muñoz et al. [28]
  REPmol, U2OS: 0.41
[6]; ref Pieterse et al. [30]
  REPmol, U2OS: 0.03
[7]
  antiandrogenic activity, PC3: +
[9]
  REPmol, T47D: 5.3 × 10^−7

## C[C@]12CC[C@@H]3c4ccc(O)cc4CC[C@H]3[C@@H]1CC[C@@H]2O [E2, 17β-estradiol, reference compound]
[8]
  REPmol, U2OS: 1
[10]
  REPmol, VM7: 1
[9]
  REPmol, T47D: 1

## c1ccc2c(c1)cc1ccc3cccc4ccc2c1c34 [B[a]P, benzo[a]pyrene]
[6]; ref Marin-Kuan et al. [29]
  REPmol, U2OS: 0.4
[6]; ref Pieterse et al. [30]
  REPmol, U2OS: 0.1
[7]
  antiandrogenic activity, PC3: +
[8]
  REPmol, U2OS: 2 × 10^−6
[10]
  REPmol, VM7: 5.3 × 10^−6
[9]
  REPmol, T47D: 3.1 × 10^−6

## O=[N+]([O-])c1ccc2ccc3cccc4ccc1c2c34 [1-NPy, 1-nitropyrene]
[1]
  antiandrogenic activity, Yeast: +
[2]
  IC25: 94 nM
  REPmol (IC25): 1.4
  IC50: 220 nM
[3]; at 10 μM
  activation (level of the response to 1 nM E2): 14% activation at 10 μM

## O=C1c2ccccc2-c2ccc([N+](=O)[O-])c3cccc1c23 [3-NBAO, 3-nitro-7H-benz[de]anthracen-7-one]
[5]
  concentration at which cytotoxicity was confirmed: 1000 nM
[1]
  antiandrogenic activity, Yeast: +
[11]
  REP50 to triiodothyronine (T3): 0.11
[2]; compound at 30 nM
  inhibition of AR-mediated luciferase activity: 29%
[2]; compound at 300 nM
  inhibition of AR-mediated luciferase activity: 60%
[2]
  mode of AR inhibition: noncompetitive
  IC25: 5.1 nM
  REPmol (IC25): 23
  IC50: 18 nM

## O=[N+]([O-])c1ccc2c3c(cccc13)-c1ccccc1-2 [3-NFA, 3-nitrofluoranthene]
[1]
  antiandrogenic activity, Yeast: +
[2]
  concentration above which inhibition of AR-mediated luciferase activity is attenuated (U-shaped curve): > 300 nM
  mode of AR inhibition: noncompetitive
  IC25: 5.3 nM
  REPmol (IC25): 32
  IC50: 14 nM
[2]; at high concentrations compared to at 100 nM
  attenuation of antiandrogenic activity: approximately 40%
[2]; compound at 100 nM
  inhibition of AR-mediated luciferase activity: 26%
[2]; compound at 10 μM
  inhibition of AR-mediated luciferase activity: 82%
[2]; table entry
  concentration above which AR-mediated luciferase activity increases (U-shaped curve): increase at > 0.3 μM
[3]
  EC50: U (< 10% response of 1 nM E2)
  REPmol (EC50): U (< 10% response of 1 nM E2)
[12]
  concentration at which weak androgenic activity was observed: ≥ 1 µM
  maximum androgenic induction, relative to the EC50 level of DHT: < 16%
[12]; read-out: maximum androgenic induction, level of maximum response of DHT exposure (10 nM)
  Emax: < 8%
